Experimental data reported in publication PMC4171615, “Discovery of selective inhibitors of Glutaminase-2, which inhibit mTORC1, activate autophagy and inhibit proliferation in cancer cells” (Oncotarget, 2014).

How the values were obtained:
human KGA = target: T1, human KGA (Homo sapiens, UniProt O94925); assay: Two-step glutaminase activity assay, purified recombinant KGA; assay type: biochemical; details: recombinant wild-type KGA, absence of phosphate
T1 construct: a KGA cDNA fragment of 1644 bp (residues Leu123-Leu669); His-tag (N); made in house; host or cells: Escherichia coli BL21(DE3)pLysS
T1 sequence (O94925 123-669): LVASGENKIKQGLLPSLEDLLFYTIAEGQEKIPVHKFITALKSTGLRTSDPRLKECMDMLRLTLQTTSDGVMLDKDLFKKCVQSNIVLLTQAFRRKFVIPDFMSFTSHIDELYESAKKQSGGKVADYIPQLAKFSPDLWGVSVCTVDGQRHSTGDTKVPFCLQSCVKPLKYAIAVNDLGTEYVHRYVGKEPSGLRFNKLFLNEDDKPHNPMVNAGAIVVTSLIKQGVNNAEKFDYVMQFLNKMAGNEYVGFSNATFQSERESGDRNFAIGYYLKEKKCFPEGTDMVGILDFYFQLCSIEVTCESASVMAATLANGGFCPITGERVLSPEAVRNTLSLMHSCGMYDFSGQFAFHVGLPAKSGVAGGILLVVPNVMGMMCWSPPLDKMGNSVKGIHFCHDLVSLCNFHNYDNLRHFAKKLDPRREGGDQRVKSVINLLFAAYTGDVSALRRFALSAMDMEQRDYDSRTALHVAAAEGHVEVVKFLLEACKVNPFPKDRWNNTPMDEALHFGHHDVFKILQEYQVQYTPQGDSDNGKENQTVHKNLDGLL
Experimental: The cDNA fragment of KGA digested with BamHI and NotI at each end was ligated into the pET28a(+) vector (Novagen) and expressed as a his-tag fusion. Escherichia coli strain BL21(DE3)pLysS was transformed with the resulting plasmid, pET28a(+)-KGA, and then cultured in Luria-Bertani broth medium in the presence of kanamycin. […] The cells were harvested by centrifugation at 10,000 rpm for 15 min at 4°C and resuspended in lysis buffer (5 mM Tris-HCl [pH 8.0], 50 mM NaH2PO4, 300 mM NaCl and 10 mM imidazole) for sonication. […] The eluted protein was exchanged to 20 mM Tris-HCl (pH 8.0), 300 mM NaCl, 10% glycerol, and 2 mM dithiothreitol by using a PD-10 Desalting column (GE Healthcare). The concentration of the purified protein was determined by use of the Bio-Rad protein assay reagent with a standard curve plotted against bovine serum albumin. […] A microtiter assay format was used to facilitate the collection of multiple data points. […] Samples were incubated at 25°C for 10 min and then 10 μl of 200 mM glutamine were added to the reaction mix. After adding glutamine, the reactions were incubated at 37°C for 60 min and then quenched by the addition of 10 μl of 0.6 M HCl. Subsequently, 100 μl of a second reaction mixture (3.7 units of purified bovine liver glutamate dehydrogenase, 160 mM Tris/acetate [pH 9.4], 400 mM hydrazine, 5 mM ADP and 2 mM NAD^+) was added to the stopped first reaction mixture and incubated for 30 min at 25°C. The absorbance at 340 nm was measured using a Wallac Victor2V plate reader (PerkinElmer), fitted with a 340 nm excitation filter. Sample absorbance was measured against a blank, containing no human glutaminase. The kinetic constants Km and Vmax were determined by using Kaleida Graph software (Synergy Software) to calculate a non-linear least-squares fit for all the data points to the Michaelis-Menten equation.

human GAB = target: T2, human GAB (Homo sapiens, UniProt Q9UI32); assay: Two-step glutaminase activity assay, purified recombinant GAB; assay type: biochemical; details: recombinant wild-type GAB, absence of phosphate
T2 construct: Equivalent construct of GAB (Pro56-Val602) was amplified from the cDNA clone; His-tag (N); made in house; host or cells: Escherichia coli C41(DE3)pLysS
T2 sequence (Q9UI32 56-602): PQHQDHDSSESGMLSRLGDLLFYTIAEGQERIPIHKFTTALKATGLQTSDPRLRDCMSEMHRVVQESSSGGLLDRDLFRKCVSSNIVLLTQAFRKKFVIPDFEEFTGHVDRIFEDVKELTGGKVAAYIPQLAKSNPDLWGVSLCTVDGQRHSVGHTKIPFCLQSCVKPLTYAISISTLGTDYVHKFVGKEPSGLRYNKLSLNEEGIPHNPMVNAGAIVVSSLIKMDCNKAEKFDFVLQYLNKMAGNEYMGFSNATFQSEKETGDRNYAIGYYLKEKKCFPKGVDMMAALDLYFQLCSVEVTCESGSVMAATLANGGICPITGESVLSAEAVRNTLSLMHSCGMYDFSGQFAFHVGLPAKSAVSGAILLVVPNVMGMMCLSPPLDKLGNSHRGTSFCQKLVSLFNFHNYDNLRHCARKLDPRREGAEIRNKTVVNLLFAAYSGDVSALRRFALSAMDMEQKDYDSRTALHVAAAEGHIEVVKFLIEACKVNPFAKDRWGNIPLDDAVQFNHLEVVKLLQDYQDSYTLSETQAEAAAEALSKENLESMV
Experimental: Equivalent construct of GAB […]) was amplified from the cDNA clone MGC: 195512 IMAGE: 100066375 (Invitrogen Inc., USA). The sequences of the primers were: [NT] (BamHI) and [NT] (Notl). The resultant GAB-expression vector, pET28a(+)-GAB, was transformed into Escherichia coli strain […] Biotech Co., Taiwan). The expression protocol was followed as that protocol of KGA construct. The cells after induction were collected and resuspended in lysis buffer (50 mM Tris-HCl pH 8.5, 500 mM NaCl, 10% glycerol, and 10 mM β-ME) for sonication. […] His-tagged GAB was eluted with lysis buffer containing 200 mM imidazole. The eluted GAB was exchanged to 20 mM Tris-HCl (pH 8.0), 300 mM NaCl, 50% glycerol, and 2 mM dithiothreitol by using a PD-10 Desalting column (GE Healthcare). Human glutaminase activity was measured using a two-step assay as described previously. A microtiter assay format was used to facilitate the collection of multiple data points. […] Samples were incubated at 25°C for 10 min and then 10 μl of 200 mM glutamine were added to the reaction mix. After adding glutamine, the reactions were incubated at 37°C for 60 min and then quenched by the addition of 10 μl of 0.6 M HCl. Subsequently, 100 μl of a second reaction mixture (3.7 units of purified bovine liver glutamate dehydrogenase, 160 mM Tris/acetate [pH 9.4], 400 mM hydrazine, 5 mM ADP and 2 mM NAD^+) was added to the stopped first reaction mixture and incubated for 30 min at 25°C. The absorbance at 340 nm was measured using a Wallac Victor2V plate reader (PerkinElmer), fitted with a 340 nm excitation filter. Sample absorbance was measured against a blank, containing no human glutaminase. The kinetic constants Km and Vmax were determined by using Kaleida Graph software (Synergy Software) to calculate a non-linear least-squares fit for all the data points to the Michaelis-Menten equation.

[1] = Carcinoma cell growth inhibition (cytotoxicity), HepG2; details: human, HepG2 hepatocarcinoma cells
Experimental: (§1) The cancer cell lines including HepG2 and A549 were obtained from American Type Culture Collection (Rockville, MD). The cells were cultured in DMEM medium with 10% FBS (v/v) and penicillin (100 units/ml)/ streptomycin (100 mg/ml). Cultures were maintained in a humidified incubator at 37°C in 5% CO2/95% air. Dulbecco's Modified Eagle Medium (DMEM), fetal bovine serum (FBS), penicillin, streptomycin, and all other tissue culture reagents were obtained from GIBCO/BRL Life Technologies (Grand Island, NY).
(§2) A549 lung carcinoma and HepG2 hepatocarcinoma cells were seeded at 4000 and 10000 cells/well respectively in 96-well plates, as previously described for cell growth inhibition assay [27, 44].

[2] = Carcinoma cell growth inhibition (cytotoxicity), A549; details: human, A549 lung carcinoma cells
Experimental: as §1, §2

in vitro [3] = details: human
Experimental: as §1, §2

in vitro [4] = details: human; remark: listed apart in the source
Experimental: as §1, §2

HepG2 cells = assay: Colony (focus) formation assay, HepG2; assay type: cell-based, human; details: HepG2, 21-day treatment
Experimental: A549 lung carcinoma and HepG2 hepatocarcinoma cells were seeded at 4000 and 10000 cells/well respectively in 96-well plates, as previously described for cell growth inhibition assay [27, 44]. To assess anchorage-dependent colony formation effect, the cells (1000 cells/well) were seeded in a six-well plate for 20-24 h prior to treatments of vehicle DMSO or compounds as indicated. Culture medium containing vehicle DMSO or compounds as indicated was changed twice a week. After a 21-day treatment, the cell colonies were rinsed with PBS, fixed in 3:1 ratio of methanol and acetic acid, stained with 0.05% crystal violet.

AMPK = assay: Western blot of AMPK_ULK1 axis signaling in HepG2 cells; assay type: cell-based, human; details: co-treatment with AV-1
Experimental: (§3) The cells were cultured in DMEM medium with 10% FBS (v/v) and penicillin (100 units/ml)/ streptomycin (100 mg/ml). Cultures were maintained in a humidified incubator at 37°C in 5% CO2/95% air. Dulbecco's Modified Eagle Medium (DMEM), fetal bovine serum (FBS), penicillin, streptomycin, and all other tissue culture reagents were obtained from GIBCO/BRL Life Technologies (Grand Island, NY). Antibodies to GAPDH, caspase 3, LC3B, p-ULK1(S317), p-ULK1(S757), Beclin1, p-BCL2(S70), p70S6K, p-p70S6K(T389), 4E-BP1, α-tubulin, 4E-BP, p-4E-BP(S65), p-eIF4B(S422), mTOR, p-mTOR(S2481), p-mTOR(S2448), p-Raptor(S792), Tuberin, p-Tuberin(T1462), p-Tuberin(T1387), p-AMPK(T172) and p-AMPK(S108) were from Cell Signaling Technology; antibody to p-Beclin1(S15) was from Abbiotec; antibodies to KGA and Raptor were from Abcam; antibodies to BCL2 were from Upstate Biotechnology; antibodies to α-tubulin were from Chemicon International; antibodies to ULK1, β-tublin and AMPK were from GeneTex; antibodies to GAB were from abnova and Gene Tex; antibodies to GAC were from ProteinTech Group; antibodies to p-mTOR(S2446) and AMPK were from Millipore; anti-mouse and anti-rabbit IgGs were obtained from PerkinElmer. […] Compound C was obtained from Sigma–Aldrich (St. Louis, MO). Western blotting was performed as described [40].

mTORC1 = assay: Western blot of mTORC1 components and downstream targets in HepG2 cells; assay type: cell-based, human; details: co-treatment with AV-1
Experimental: as §3

Q: What does the source list for `CCCCCCCC/C=C\CCCCCCCc1cc(O)cc(O)c1` [AK-1]?
A: IC50 (human KGA): 73 ± 3 µM; IC50 (human GAB): 2.9 ± 0.6 µM

Q: What does the source list for `CCCCCCCC/C=C\CCCCCCCc1cc(O)c(C)c(O)c1` [AK-3]?
A: IC50 (human KGA): 76.9 ± 0.8 µM; IC50 (human GAB): 2.7 µM

Q: With `CCCCCC/C=C\CCCCCCCc1cc(O)c(C)c(O)c1` [AK-4] as the molecule, how does the IC50 (human KGA) read?
A: 59.8 ± 4.6 µM

Q: What does the source list for `COc1cc(O)cc(CCCCCCC/C=C\CCCCCCCc2cc(O)c(C)c(O)c2)c1` [AK-5]?
A: IC50 (human KGA): 70 ± 1.6 µM; IC50 (human GAB): 2.3 ± 0.4 µM

Q: For `COc1cc(O)cc(CCCCC/C=C\CCCCCCCc2cc(O)c(C)c(O)c2)c1` [AK-6], which IC50 (human KGA) is on record?
A: 36.7 ± 3.2 µM

Q: What about the IC50 (human GAB) of the same molecule?
A: 2.5 ± 0.3 µM

Q: Which IC50 (human KGA) does the source give for `Cc1c(O)cc(CCCCCCC/C=C\CCCCCCCc2cc(O)c(C)c(O)c2)cc1O` [AK-7] here?
A: 17.5 ± 2.6 µM

Q: And the IC50 (human GAB)?
A: 2.9 ± 0.8 µM

Q: And the CC50 [1]?
A: > 100 µM

Q: And the CC50 [2]?
A: > 100 µM

Q: What does the source list for `Cc1c(O)cc(CCCCC/C=C\CCCCCCCc2cc(O)c(C)c(O)c2)cc1O` [AK-8]?
A: IC50 (human KGA): 13.9 ± 1.5 µM; IC50 (human GAB): 3.1 ± 0.5 µM

Q: With `Cc1c(O)cc(CCCCCCC/C=C\CCCCCCCc2cc(O)cc(O)c2)cc1O` [AK-9] as the molecule, how does the IC50 (human KGA) read?
A: 11.9 ± 1.2 µM

Q: And the IC50 (human GAB)?
A: 2.3 ± 0.5 µM

Q: For `Cc1c(O)cc(CCCCCCC/C=C\CCCCCc2cc(O)cc(O)c2)cc1O` [AK-10], which IC50 (human KGA) is on record?
A: 11.7 ± 1.3 µM

Q: What about the IC50 (human GAB) of the same molecule?
A: 2.1 ± 0.1 µM

Q: With `COc1cc(O)cc(CCCCCCC/C=C\CCCCCCCc2cc(O)cc(O)c2)c1` [AK-11] as the molecule, how does the IC50 (human KGA) read?
A: 13.4 ± 2.2 µM

Q: And the IC50 (human GAB)?
A: 2.9 ± 0.5 µM

Q: With `COc1cc(O)cc(CCCCCCC/C=C\CCCCCc2cc(O)cc(O)c2)c1` [AK-12] as the molecule, how does the IC50 (human KGA) read?
A: 9.6 ± 1.2 µM

Q: And the IC50 (human GAB)?
A: 2.9 ± 0.6 µM

Q: What about the CC50 [1] of the same molecule?
A: 84.6 ± 2.3 µM

Q: And the CC50 [2]?
A: > 100 µM

Q: Which IC50 (human GAB) does the source give for `CCCCCCCCCCCCCC(CC1=C(O)C(=O)C=C(OC)C1=O)OC(C)=O` (centres unmarked) [AV-3] here?
A: 25.1 ± 4.5 µM

Q: What about the CC50 [1] of the same molecule?
A: > 50 µM

Q: And the CC50 [2]?
A: > 50 µM

Q: With `CCCCCCCCCCCC(CC1=C(O)C(=O)C=C(OC)C1=O)OC(C)=O` (centres unmarked) [AV-4] as the molecule, how does the CC50 [1] read?
A: > 50 µM

Q: And the CC50 [2]?
A: > 50 µM

Q: Which CC50 (in vitro [3]) does the source give for `CCCCCCCCCCCCCC1=C(O)C(=O)C=C(OC)C1=O` [AV-7] here?
A: > 50 µM

Q: And the CC50 (in vitro [4])?
A: > 50 µM

Q: With `CCCCCCCCCCCC(Cc1cc(O)cc(OC)c1O)OC(C)=O` (centres unmarked) [AV-8] as the molecule, how does the CC50 [1] read?
A: 18.8 ± 0.7 µM

Q: What about the CC50 [2] of the same molecule?
A: 11.6 ± 0.4 µM

Q: For `CCCCCCCCCCCC(Cc1cc(OC(C)=O)cc(OC)c1O)OC(C)=O` (centres unmarked) [AV-9], which IC50 (human GAB) is on record?
A: 31.7 ± 6.7 µM

Q: What about the CC50 [1] of the same molecule?
A: 13.7 ± 2.2 µM

Q: What about the CC50 [2] of the same molecule?
A: 13 ± 2.1 µM

Q: With `CCCCCCCCCCCC(Cc1c(O)c(OC)cc(O)c1C=O)OC(C)=O` (centres unmarked) [AV-10] as the molecule, how does the IC50 (human GAB) read?
A: 23.1 ± 4.9 µM

Q: And the CC50 [1]?
A: 21.2 ± 0.8 µM

Q: And the CC50 [2]?
A: 22.1 ± 1.6 µM

Q: Which results are given for `CCCCCCCCCCCCCC(Cc1cc(OC(C)=O)cc(OC)c1O)OC(C)=O` (centres unmarked) [AV-11]?
A: IC50 (human KGA): 69 ± 3.1 µM; IC50 (human GAB): 5.7 ± 1.1 µM; CC50 [1]: 5.2 ± 0.3 µM; CC50 [2]: 5 ± 0.8 µM

Q: With `CCCCCCCCCCCCCC(O)Cc1cc(O)cc(OC)c1` (centres unmarked) [AV-12] as the molecule, how does the IC50 (human KGA) read?
A: 52.4 ± 15.5 µM

Q: And the IC50 (human GAB)?
A: 7.6 ± 2 µM

Q: And the CC50 [1]?
A: > 50 µM

Q: And the CC50 [2]?
A: > 50 µM

Q: What does the source list for `CCCCCCCc1cc(O)cc(OC)c1` [AV-13]?
A: IC50 (human KGA): 52.7 ± 2.7 µM; CC50 [1]: 36.9 ± 2 µM; CC50 [2]: 35.5 ± 2.6 µM

Q: For `CCCCCCCCCCCCCC(=O)Cc1cc(O)cc(OC)c1OC(C)=O` [AV-14], which IC50 (human KGA) is on record?
A: 41 ± 5.2 µM

Q: And the IC50 (human GAB)?
A: 4.7 ± 1.3 µM

Q: And the CC50 [1]?
A: > 50 µM

Q: What about the CC50 [2] of the same molecule?
A: > 50 µM

Q: With `O=C(Cc1ccccc1)Nc1nnc(CCSCCc2nnc(NC(=O)Cc3ccccc3)s2)s1` [BPTES] as the molecule, how does the IC50 (HepG2 cells) read?
A: 2.8 ± 0.4 µM

Q: With `[N-]=[N+]=CC(=O)CC[C@H](N)C(=O)O` [DON, reference compound] as the molecule, how does the IC50 (human KGA) read?
A: 59.9 ± 8.8 µM

Q: For `c1cc(-c2cnn3cc(-c4ccc(OCCN5CCCCC5)cc4)cnc23)ccn1` [compound C], which “Effect on the AV-1 decreased phosphorylation of ULK1 Ser757” value (AMPK) is on record?
A: reversed

Q: And the “Effect on AV-1 induced phosphorylation of Raptor at Ser792 and Tuberin at Ser1387” value (mTORC1)?
A: attenuated
